Data: patent publication US8497278B2, “Imidazo[1,2-a]pyridine compounds” (priority 2008, dated 2013)

Columns and labels:
[1] = tested on: central benzodiazepine receptors; assay: Central benzodiazepine receptor binding (test of Speth et al.); conditions: 1000 nM of the compound
In short: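 Values are percent inhibition of central benzodiazepine receptor binding at 1000 nM compound (initial single-point screen at 1.0E-09, 1.0E-07 and 1.0E-05 M). Speth et al. binding test; nonspecific binding defined with excess unlabelled ligand and subtracted from total.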

[2] = target: T1, α2 subtype containing GABA-A receptors (Homo sapiens, UniProt P18507+P47869); assay: Two-electrode voltage clamp electrophysiology in Xenopus oocytes, potentiation of GABA EC20 response, α2; type: cell-based; conditions: 100 nM compound; for activation at 0.1 µM: read-out: Percentage of potentiation alpha2
T1 construct: expressed in transfected cells; host or cells: Xenopus laevis oocytes, cRNA injected
T1 sequence (P47869 29-451): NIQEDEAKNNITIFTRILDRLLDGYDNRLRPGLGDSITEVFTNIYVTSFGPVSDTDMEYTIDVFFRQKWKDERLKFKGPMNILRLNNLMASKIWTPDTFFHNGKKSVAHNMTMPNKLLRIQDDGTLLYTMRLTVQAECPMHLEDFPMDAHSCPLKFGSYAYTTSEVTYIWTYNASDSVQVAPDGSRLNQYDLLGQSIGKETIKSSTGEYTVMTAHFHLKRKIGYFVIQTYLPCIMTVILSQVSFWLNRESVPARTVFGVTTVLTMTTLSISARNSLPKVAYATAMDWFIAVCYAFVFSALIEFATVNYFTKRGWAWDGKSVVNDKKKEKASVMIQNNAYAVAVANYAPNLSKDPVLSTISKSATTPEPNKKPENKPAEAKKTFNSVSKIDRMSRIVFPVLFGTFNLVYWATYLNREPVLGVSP
T1 sequence (P28472 26-473 partner): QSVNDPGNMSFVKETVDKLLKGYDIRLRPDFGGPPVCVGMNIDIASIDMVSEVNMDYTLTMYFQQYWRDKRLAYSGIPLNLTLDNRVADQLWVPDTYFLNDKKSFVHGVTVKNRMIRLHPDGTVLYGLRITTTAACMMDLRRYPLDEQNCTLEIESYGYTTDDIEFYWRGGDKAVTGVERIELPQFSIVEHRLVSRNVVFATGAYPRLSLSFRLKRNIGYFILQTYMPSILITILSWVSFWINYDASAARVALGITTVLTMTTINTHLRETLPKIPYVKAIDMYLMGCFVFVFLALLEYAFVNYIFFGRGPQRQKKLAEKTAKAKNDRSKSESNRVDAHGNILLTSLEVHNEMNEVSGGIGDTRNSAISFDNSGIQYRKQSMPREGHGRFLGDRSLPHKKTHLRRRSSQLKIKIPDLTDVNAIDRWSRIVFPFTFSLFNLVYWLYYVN
T1 sequence (P18507 40-475): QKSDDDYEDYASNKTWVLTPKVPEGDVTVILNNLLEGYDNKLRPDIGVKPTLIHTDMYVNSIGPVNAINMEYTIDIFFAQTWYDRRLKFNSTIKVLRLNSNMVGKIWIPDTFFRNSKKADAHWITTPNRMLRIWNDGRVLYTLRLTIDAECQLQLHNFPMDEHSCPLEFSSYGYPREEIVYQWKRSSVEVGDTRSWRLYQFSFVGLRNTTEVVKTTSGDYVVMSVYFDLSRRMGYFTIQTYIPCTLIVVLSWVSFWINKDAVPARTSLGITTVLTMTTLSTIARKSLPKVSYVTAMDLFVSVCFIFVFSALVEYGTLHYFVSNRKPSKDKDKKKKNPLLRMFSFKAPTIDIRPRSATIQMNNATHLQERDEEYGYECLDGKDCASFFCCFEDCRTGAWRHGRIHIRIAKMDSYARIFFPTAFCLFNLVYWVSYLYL
Protocol: (§1) Electrophysiology protocol: Oocytes were prepared from adult female Xenopus laevis frogs. cRNA encoding human α1, α2, α3, α5, β3 and γ2L GABAA receptor subunits was injected into the cytoplasm of stage 5 or 6 oocytes using the Robocyte Robot (Multi Channel Systems, Reutlingen, Germany). Two-electrode voltage clamp recordings were made in 96-well plates using the Robocyte Robot. Oocytes were impaled using recording heads with two glass electrodes containing 1.5 M potassium acetate and 0.5 M KCl and held at a membrane potential of −80 mV. Oocytes were continually perfused with a ND96 solution (96 mM NaCl, 2 mM KCl, 0.1 mM CaCl2, and 5 mM HEPES, pH 7.5) using a Gilson 222 XL Liquid Handler and Gilson Minipuls 3 Peristaltic Pump (Gilson Medical Electronics, Middleton, Wis., USA). The protocol consisted of three 20-s applications of GABA that gave a 20% of the maximum response (EC20: 60 μM) to allow for headroom to determine a baseline GABA response. To assess the potentiation, oocytes were first exposed to a single 1 μM chlordiazepoxide (CDP) as a potentiation standard. Oocytes with insufficient expression levels (currents below threshold) or insufficient γ2L subunit incorporation (judged by rapid desensitization upon GABA application, or by insufficient potentiation by CDP) were not included in analysis. Following this control application, a given oocyte was exposed to test compounds at 100 nM concentrations. Only one concentration of one compound was tested per oocyte. […] One skilled in the art will recognize that subtypes contribute to the effects of GABA-A modulators. Such that compounds favoring different subtypes can have different therapeutic effects. The magnitude of modulation, for example, partial modulators can influence the effects in vivo. “++” indicates a greater modulation that “+” so that at any given subtype “++” inducates a greater amount of modulation for that subtype. In some embodiments, modulation favoring alpha 1 relative to alpha2 and/or alpha 3 can have sedative hypnotic effects. In other embodiments, compounds with reduced selectivity of alpha 1 can express anxiolytic effects with less sedation. Compounds with selectivity for alpha 5 can have memory/cognition enhancing effects.

[3] = target: T2, α1 subtype containing GABA-A receptors (Homo sapiens, UniProt P14867+P18507); assay: Two-electrode voltage clamp electrophysiology in Xenopus oocytes, potentiation of GABA EC20 response, α1; type: cell-based; conditions: 100 nM compound; for activation at 0.1 µM: read-out: Percentage of potentiation alpha1
T2 construct: expressed in transfected cells; host or cells: Xenopus laevis oocytes, cRNA injected
T2 sequence (P14867 28-456): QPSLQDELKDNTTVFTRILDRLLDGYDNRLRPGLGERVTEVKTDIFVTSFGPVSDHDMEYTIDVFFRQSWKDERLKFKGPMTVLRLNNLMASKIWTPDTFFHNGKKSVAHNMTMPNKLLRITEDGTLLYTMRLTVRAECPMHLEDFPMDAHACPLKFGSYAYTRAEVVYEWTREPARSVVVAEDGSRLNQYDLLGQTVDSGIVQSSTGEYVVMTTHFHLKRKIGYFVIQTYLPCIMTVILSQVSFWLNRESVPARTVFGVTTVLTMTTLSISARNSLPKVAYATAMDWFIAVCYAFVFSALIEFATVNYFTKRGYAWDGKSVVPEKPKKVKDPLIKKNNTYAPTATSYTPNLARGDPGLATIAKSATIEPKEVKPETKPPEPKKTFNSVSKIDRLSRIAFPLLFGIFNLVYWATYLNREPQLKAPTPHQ
T2 sequence (P28472 26-473 partner): as the sequence (P28472 26-473 partner) above
T2 sequence (P18507 40-475): as the sequence (P18507 40-475) above
Protocol: as §1

SMILES	% Inhibition at 1000 nM for CBZD [1]	Percentage of potentiation alpha2 [2]	Percentage of potentiation alpha1 [3]	activation at 0.1 µM [2]	activation at 0.1 µM [3]
Cc1ccc2nc(-c3ccc(F)cc3)c(Cn3cncn3)n2c1 [Compound 63, 3-((1H-1,2,4-triazol-1-yl)methyl)-2-(4-fluorophenyl)-6-methylH-imidazo[1,2-a]pyridine]	++ (percentage of inhibition of central BZD site binding is greater than 80% in the presence of 1000 nM of the compound)	0 (percentage of potentiation is between about 10% to about −10%)	+ (percentage of potentiation is greater than or equal to 10% but less than 50% in the presence of 100 nM of the compound)	–	–
CCNCc1ccnc(NCc2c(-c3ccc(F)cc3)nc3ccc(C)cn23)n1 [Compound 196, 4-((ethylamino)methyl)-N-((2-(4-fluorophenyl)-6-methylimidazo[1,2-a]pyridin-3-yl)methyl)pyrimidin-2-amine]	++ (percentage of inhibition of central BZD site binding is greater than 80% in the presence of 1000 nM of the compound)	–	–	≥ 50%	≥ 50%
NNC(=O)c1nc(Cc2c(-c3ccc(Cl)cc3)nc3ccccn23)no1 [Compound 215, 3-((2-(4-chlorophenyl)imidazo[1,2-a]pyridin-3-yl)methyl)-1,2,4-oxadiazole-5-carbohydrazide]	–	–	–	10 to 50%	-10 to 10%
CNC(=O)c1ncn(Cc2c(-c3ccc(Cl)cc3)nc3ccccn23)n1 [Compound 73, 1-((2-(4-chlorophenyl)imidazo[1,2-a]pyridin-3-yl)methyl)-N-methyl-1H-1,2,4-triazole-3-carboxamide]	–	–	–	10 to 50%	10 to 50%
CONC(=O)c1nc(Cc2c(-c3ccc(F)cc3)nc3ccc(F)cn23)no1 [Compound 224, 3-((2-(4-fluorophenyl)-6-fluoroimidazo[1,2-a]pyridin-3-yl)methyl)-N-methyoxy-1,2,4-oxadiazole-5-carboxamide]	–	+ (percentage of potentiation is greater than or equal to 10% but less than 50% in the presence of 100 nM of the compound)	0 (percentage of potentiation is between about 10% to about −10%)	–	–
CN(O)C(=O)c1nc(Cc2c(-c3ccc(F)cc3)nc3ccc(F)cn23)no1 [Compound 225, 3-((6-fluoro-2-(4-fluorophenyl)imidazo-[1,2-a]pyridin-3-yl)methyl)-N-hydroxy-N-methyl-1,2,4-oxadiazole-5-carboxamide]	–	–	–	10 to 50%	≤ -10%
Clc1ccc(-c2nc3ccccn3c2Cn2nnc3ccccc32)cc1 [Compound 42, 1-((2-(4-chlorophenyl)H-imidazo[1,2-a]pyridin-3-yl)methyl)-1H-benzo[d][1,2,3]triazole]	–	+ (percentage of potentiation is greater than or equal to 10% but less than 50% in the presence of 100 nM of the compound)	+ (percentage of potentiation is greater than or equal to 10% but less than 50% in the presence of 100 nM of the compound)	–	–
Nc1ccn(Cc2c(-c3ccc(Cl)cc3)nc3ccccn23)c(=O)n1 [Compound 106, 4-amino-1-((2-(4-chlorophenyl)imidazo[1,2-a]pyridin-3-yl)methyl)pyrimidin-2(1H)-one]	–	–	–	10 to 50%	10 to 50%
Cc1ccc(-c2nc3ccc(C)cn3c2CNc2nccnn2)cc1 [Compound 145, (6-Methyl-2-p-tolyl-imidazo[1,2-a]pyridin-3-ylmethyl)-[1,2,4]triazin-3-yl-amine]	–	–	–	10 to 50%	≥ 50%
CNC(=O)c1nc(Cc2c(-c3ccc(F)cc3)nc3ccc(F)cn23)no1 [Compound 221, 3-((6-fluoro-2-(4-fluorophenyl)imidazo[1,2-a]pyridin-3-yl)methyl)-N-methyl-1,2,4-oxadiazole-5-carboxamide]	–	–	–	10 to 50%	-10 to 10%
